System: not given
Assay: not given
Conditions: not given

Structure (SMILES) | melting point [°C]
COCSc1ccc2c(c1)CC[C@@H]1[C@@H]2CC[C@]2(C)C(=O)CC[C@@H]12 [EM-1064, 3-Methoxymethylthio-Estra-1,3,5(10)-trien-17-one] | 55
CSCCSc1ccc2c(c1)CC[C@@H]1[C@@H]2CC[C@]2(C)C(=O)CC[C@@H]12 [EM-1065, 3-Methylthioethylthio-Estra-1,3,5(10)-trien-17-one] | 74

Molecular target: T1, human type 3 17β-hydroxysteroid dehydrogenase (Homo sapiens, UniProt P37058)
T1 construct: expressed in transfected cells; host or cells: 293 cells, transient transfection; microsomal fraction (100 000×g pellet)
T1 sequence (P37058 1-310): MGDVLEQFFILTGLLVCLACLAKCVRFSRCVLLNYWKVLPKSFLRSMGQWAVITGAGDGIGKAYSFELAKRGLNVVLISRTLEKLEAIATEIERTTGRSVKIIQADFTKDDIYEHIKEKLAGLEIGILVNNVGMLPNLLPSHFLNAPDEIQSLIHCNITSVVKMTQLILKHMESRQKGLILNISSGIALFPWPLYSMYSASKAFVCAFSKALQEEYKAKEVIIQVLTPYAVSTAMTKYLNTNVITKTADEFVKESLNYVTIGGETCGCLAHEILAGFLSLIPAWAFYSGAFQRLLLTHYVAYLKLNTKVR
Assay: Enzymatic assay for type 3 17β-HSD
Type: biochemical
Conditions: not given
Excerpt: Enzymatic assay for types 1, 2, and 3 17β-HSD and types 1 and 3 3α-HSD”. Lower numbers of IC50 are desirable. Blank means that a determination was not done. The % of inhibition at the concentration of 3.10^−6M determined in preliminary screening test is reported in square braquets.
Enzyme sources. 293 cells transiently transfected with expression vectors encoding types 1, 2 and 3 17β-HSD (Luu-The et al., J. Steroid Biochem. Molec. Biol., 55: 581-587, 1995), types 1 and 2 5α-reductase (Luu-The et al., J. Invest. Dermatol., 102: 221-226, 1994) and types 1 and 3 3α-HSD (Dufort et al. Biochem. Biophys. Res. Commun. 228: 474-479, 1996), using the calcium phosphate procedure (Kingston et al., In: Current Protocols in Molecular Biology. Edited by E. M. Ausbel, R. Brent, R. E. Kingston, D. D. Moore, J. G. Seidman, J. A. Smith, K. Struhl. John Wiley & Sons, New York, pp. 9.1.1-9.1.9, 1991; Luu-The et al., J. Invest. Dermatol., 102: 221-226, 1994). For assays using cell subfractions, cells were sonicated in 50 mM sodium phosphate buffer (pH 7.4), containing 20% glycerol and 1 mM EDTA and centrifuged at 10 000×g for 30 min before centrifugation for 100 000×g for 1 h to separate the mitochondrial and microsomal fractions, respectively. The cytosol fractions (100 000×g supernatant) was used to determine type 1 activity while the microsomal fraction (pellet at 100 000×g) was used for measurement of types 2 and 3 17β-HSD activities.
Incubation. The enzymatic reaction was carried out at 37° C. in 1 ml of 50 mM sodium phosphate buffer, pH 7.4, containing 20% glycerol, 1 mM EDTA, and 2 mM cofactors (NADPH or AND^+) for 1 h in the presence of 0.1 μM ^14C-labeled substrate: estrone and 4-dione for types 1 and […] 17β-HSD, respectively, testosterone for type 2 17β-HSD as well as types 1 and 2 5α-reductases, DHT for types 1 and 3 3α-HSD activities, and the indicated concentration of inhibitor.
Extraction of metabolites, migration on TLC and quantification were as described above for the assay of type 5 17β-HSD.

Structure (SMILES) | IC50 [nM]
C[C@]12CC[C@](O)(Cc3ccccc3)C[C@@H]1CC[C@@H]1[C@@H]2CC[C@]2(C)C(=O)CC[C@@H]12 [CS-213, 3β-benzyl-3α-Hydroxy-5α-androstane-17-one] | 31 ± 4

Same assay, conditions: 3.10^−6 M inhibitor

Structure (SMILES) | % of Inhibition of the Type 3 17β-HSD Activity [%]
COCOc1ccc2c(c1)CC[C@@H]1[C@@H]2CC[C@]2(C)C(=O)CC[C@@H]12 [EM-1070, 3-Methyloxymethyloxy-1,3,5(10)-estratrien-17-one] | 90
CCOCCOc1ccc2c(c1)CC[C@@H]1[C@@H]2CC[C@]2(C)C(=O)CC[C@@H]12 [EM-1071, 3-Ethyloxyethyloxy-1,3,5(10)-estratrien-17-one] | 91
COCCOc1ccc2c(c1)CC[C@@H]1[C@@H]2CC[C@]2(C)C(=O)CC[C@@H]12 [EM-1073, 3-Methyloxyethyloxy-1,3,5(10)-estratrien-17-one] | 87
CSCOc1ccc2c(c1)CC[C@@H]1[C@@H]2CC[C@]2(C)C(=O)CC[C@@H]12 [EM-1066, 3-Methylthiomethyloxy-1,3,5(10)-estratrien-17-one] | 93
COCSc1ccc2c(c1)CC[C@@H]1[C@@H]2CC[C@]2(C)C(=O)CC[C@@H]12 [EM-1064, 3-Methoxymethylthio-Estra-1,3,5(10)-trien-17-one] | 92
CSCCSc1ccc2c(c1)CC[C@@H]1[C@@H]2CC[C@]2(C)C(=O)CC[C@@H]12 [EM-1065, 3-Methylthioethylthio-Estra-1,3,5(10)-trien-17-one] | 94
CCCCOc1ccc2c(c1)CC[C@@H]1[C@@H]2CC[C@]2(C)C(=O)CC[C@@H]12 [EM-1074, 3-Butyloxy-1,3,5(10)-estratrien-17-one] | 92

Same assay, conditions: 3.10^−7 M inhibitor

Structure (SMILES) | % of Inhibition of the Type 3 17β-HSD Activity [%]
COCOc1ccc2c(c1)CC[C@@H]1[C@@H]2CC[C@]2(C)C(=O)CC[C@@H]12 [EM-1070, 3-Methyloxymethyloxy-1,3,5(10)-estratrien-17-one] | 57
CCOCCOc1ccc2c(c1)CC[C@@H]1[C@@H]2CC[C@]2(C)C(=O)CC[C@@H]12 [EM-1071, 3-Ethyloxyethyloxy-1,3,5(10)-estratrien-17-one] | 73
COCCOc1ccc2c(c1)CC[C@@H]1[C@@H]2CC[C@]2(C)C(=O)CC[C@@H]12 [EM-1073, 3-Methyloxyethyloxy-1,3,5(10)-estratrien-17-one] | 51
CSCOc1ccc2c(c1)CC[C@@H]1[C@@H]2CC[C@]2(C)C(=O)CC[C@@H]12 [EM-1066, 3-Methylthiomethyloxy-1,3,5(10)-estratrien-17-one] | 63
COCSc1ccc2c(c1)CC[C@@H]1[C@@H]2CC[C@]2(C)C(=O)CC[C@@H]12 [EM-1064, 3-Methoxymethylthio-Estra-1,3,5(10)-trien-17-one] | 62
CSCCSc1ccc2c(c1)CC[C@@H]1[C@@H]2CC[C@]2(C)C(=O)CC[C@@H]12 [EM-1065, 3-Methylthioethylthio-Estra-1,3,5(10)-trien-17-one] | 63
CCCCOc1ccc2c(c1)CC[C@@H]1[C@@H]2CC[C@]2(C)C(=O)CC[C@@H]12 [EM-1074, 3-Butyloxy-1,3,5(10)-estratrien-17-one] | 62

Same assay, conditions: Table 7; read-out: Inhibition of the Type 3 17β-HSD Activity IC50

Structure (SMILES) | IC50 [nM]
C[C@]12CC[C@](O)(CCc3ccccc3)C[C@@H]1CC[C@@H]1[C@@H]2CC[C@]2(C)C(=O)CC[C@@H]12 [EM-1324-CS, 3α-hydroxy-3β-phenylethyl-5α-androstane-17-one] | 31 ± 4

Reference: US6541463B1, “Inhibitors of type 5 and type 3 17β-hydroxysteroid dehydrogenase and methods for their use” (Endorecherche, Inc., priority 1998, dated 2003)
